Assay results published in publication PMC5974403, “The novel histone de acetylase 6 inhibitor, MPT0G211, ameliorates tau phosphorylation and cognitive deficits in an Alzheimer’s disease model” (Cell Death & Disease, 2018).
pIC50: −log10 of the molar value. Entries after “also recorded” stand apart in the source; their conditions may differ.

Columns and labels:
SH-SY5Y cells [1] = experiment: Western blot of tau phosphorylation and kinases in SH-SY5Y cells transfected with pCAX APP 695 and pRK5-EGFP-Tau P301L; assay type: cell-based, human; details: 0.1 μM, 24 h
Protocol: (§1) Images represented magnification at ×100. b Cells were transfected with pCAX APP 695 for 24 h, harvested, and cell lysates were subjected to Western blotting. c, d SH-SY5Y and Neuro-2a cells were transfected with pCAX APP 695 and/or pRK5-EGFP-Tau P301L for 24 h. Cell lysates were prepared for western blot analysis of the indicated proteins. e, f Cells were transfected with pCAX APP 695 and pRK5-EGFP-Tau P301L for 24 h and were then incubated with or without MPT0G211 or ACY-1215 (0.1 μM) for another 24 h. Cell lysates were subjected to western blot analysis using the indicated antibodies. Results are presented as the mean ± SEM from three independent experiments. **p < 0.01, ***p < 0.001 compared with the control group; ^#p < 0.05, ^##p < 0.01 compared with the indicated groups
(§2) Cell lysates were prepared for western blot analysis of the indicated proteins. Results are presented as the mean ± SEM. *p < 0.05, **p < 0.01, and ***p < 0.001 compared with the control group; ^#p < 0.05, ^##p < 0.01, ^###p < 0.001 compared with the indicated groups
(§3) Cells were seeded 1 day before transfection. The plasmids pCAX FLAG APP and pRK5-EGFP-Tau P301L (1 μg each) and 1 μL of TurboFect transfection reagent were mixed for 20 min at room temperature, added to the cells, and the suspensions were incubated for 24 h at 37 °C in a humidified atmosphere containing 5% CO2.
(§4) Cells (1 × 10^6) were incubated for 10 min at 4 °C in lysis buffer (20 mM HEPES, pH 7.4, 2 mM EGTA, 50 mM β-glycerophosphate, 0.1% Triton X-100, 10% glycerol, 1 mM dithiothreitol, 1 μg/mL leupeptin, 5 μg/mL aprotinin, 1 mM phenylmethylsulfonyl fluoride, and 1 mM sodium orthovanadate), scraped from the plate, incubated on ice for 10 min, and centrifuged at 17,000 × g for 30 min at 4 °C. Protein samples (30 μg) were electrophoresed through sodium dodecyl sulfate-polyacrylamide gels (SDS-PAGE) and transferred onto a nitrocellulose membrane, which was then blocked by incubation for 30 min at room temperature with 5% fat-free milk in PBS. Immunoblotting was performed by overnight incubation at 4 °C with primary antibodies in PBS, followed by incubation for 1 h at room temperature with HRP-conjugated secondary antibodies. Bound antibodies were measured using ECL reagent (T-Pro Biotechnology, New Taipei City, Taiwan), and the membrane was placed on a photographic film. Cell lysates (30 μg) were incubated with antibodies (1 μg each) and protein A/G agarose beads overnight at 4 °C. The precipitated beads were washed three times with 1 mL of ice-cold cell lysis buffer, and bound immune complexes were separated using 8% SDS-PAGE, followed by immunoblotting using the indicated primary antibody.

Neuro-2a cells [2] = experiment: Western blot of tau phosphorylation and kinases in Neuro-2a cells transfected with pCAX APP 695 and pRK5-EGFP-Tau P301L; assay type: cell-based, mouse; details: 0.1 μM, 24 h
Protocol: as §1, §2, §3, §4

SH-SY5Y cells [3] = experiment: Subcellular fractionation of tau pools (tau aggregation) in transfected SH-SY5Y cells; assay type: cell-based, human; details: SH-SY5Y transfected hAPP 695 + hTau P301L, 0.1 μM, 24 h
Protocol: The fractionation scheme used to separate different cellular pools of tau, and the western blot analysis of the effects of the compounds on tau pools generated using the fractionation scheme are presented. b, d SH-SY5Y cells were transfected for 24 h with pCAX APP 695 and pRK5-EGFP-Tau P301L, incubated with or without MPT0G211 or ACY-1215 (0.1 μM) for another 24 h, and then the cells were fixed and stained by propidium iodide (b) or annexin V/PI double staining (d) and analyzed by flow cytometry. c, e Percentages of the subG1 phase (c) or annexin V-positive cells (e) in response to drug treatment as explained in (b). Results are presented as the mean ± SEM. *p < 0.05 and **p < 0.01 compared with the control group; ^#p < 0.05 and ^##p < 0.01 compared with the indicated groups TEXT PRINTED IN THE PICTURE: (B) MPT0G211: hAPP + hTauP301L: SubG1 10.91% | (B) ACY-1215: hAPP + hTauP301L: SubG1 15.40% | (D) MPT0G211: hAPP + hTauP301L: 9.56%; hAPP + hTauP301L: 11.26% | (D) ACY-1215: hAPP + hTauP301L: 9.28%; hAPP + hTauP301L: 11.25%
This assay followed a published method. Briefly, cells (1 × 10^7) were treated with drugs for 24 h and scraped off into breaking buffer (0.25 M sucrose, 10 mM HEPES, pH 7.2, 1 mM MgAc2, and protease inhibitors). […] Samples containing equal amounts of protein were analyzed using SDS-PAGE.

Neuro-2a cells [4] = experiment: Immunoprecipitation/immunoblot of HDAC6, acetyl-lysine, ubiquitin in transfected Neuro-2a cells; assay type: cell-based, mouse; details: Neuro-2a transfected, 24 h
Protocol: Fig. 4 MPT0G211 increased the ubiquitination of p-tau and degradation by proteasome. a, b SH-SY5Y and Neuro-2a cells were transfected for 24 h with pCAX APP 695 and pRK5-EGFP-Tau P301L and incubated with MPT0G211 or ACY-1215 (0.1 μM) for another 24 h, after which the cell lysates were immunoprecipitated with antibodies against HDAC6, acetyl-lysine (a) or ubiquitin (b) and were subjected to immunoblotting. c Cells were transfected with pCAX APP 695 and pRK5-EGFP-Tau P301L for 24 h and were then incubated with MPT0G211 (0.01–1 μM) for another 24 h. Immunoblots reveal polyubiquitin complexes. d pCAX APP 695 or pRK5-EGFP-Tau P301L were used to transfect the cells for 24 h, incubated with or without MG132 (1 μM) for 30 min, and were then treated with MPT0G211 or ACY-1215 (0.1 μM) for another 24 h. Cell lysates were prepared for western blot analysis of the indicated proteins
as §4

HDAC6 = test system: HDAC6; set-up: method as in PMID 29304284; details: cited from earlier work

O=C(NO)c1ccc(CNc2cccc3cccnc23)cc1 [MPT0G211, N-hydroxy-4-((quinolin-8-ylamino)methyl)benzamide]
phosphorylation of tau Ser396 (SH-SY5Y cells [1]; SH-SY5Y transfected hAPP 695 + hTau P301L): significantly inhibited; also recorded: significantly attenuated | CDK5, p25, or p35 expression (SH-SY5Y cells [1]; SH-SY5Y transfected): no marked changes | phospho-GSK3β on Ser9 (SH-SY5Y cells [1]; SH-SY5Y transfected): significant phospho-GSK3β increases | phospho-GSK3β on Ser216 (SH-SY5Y cells [1]; SH-SY5Y transfected): a decrease | phosphorylation of tau Ser404 (SH-SY5Y cells [1]; SH-SY5Y transfected): significantly attenuated | phosphorylation of tau Ser396 (Neuro-2a cells [2]; Neuro-2a transfected hAPP 695 + hTau P301L): significantly inhibited; also recorded: significantly attenuated | CDK5, p25, or p35 expression (Neuro-2a cells [2]; Neuro-2a transfected): no marked changes | phospho-GSK3β on Ser9 (Neuro-2a cells [2]; Neuro-2a transfected): significant phospho-GSK3β increases | phospho-GSK3β on Ser216 (Neuro-2a cells [2]; Neuro-2a transfected): a decrease | phosphorylation of tau Ser404 (Neuro-2a cells [2]; Neuro-2a transfected): significantly attenuated | levels of aggregated tau (SH-SY5Y cells [3]): significantly reduced | coimmunoprecipitation of ubiquitin with p-tau (Ser396) (Neuro-2a cells [4]; 0.1 μM): clearly increased | HDAC6/Hsp90 binding (Neuro-2a cells [4]; 0.1 μM, IP): downregulation | acetylation of Hsp90 (Neuro-2a cells [4]; 0.1 μM, IP): clearly enhanced | level of polyubiquitinated proteins (Neuro-2a cells [4]; 0.01–1 μM): significantly accumulated | selectivity for HDAC6 compared with the other HDAC isoforms (HDAC6): 1000 fold | pIC50 (HDAC6; read-out: HDAC6 inhibition IC50): 9.54
